In patent publication US20250127799A1, “DRUG CONJUGATES FOR BONE MARROW PROTECTION” (priority 2023, published 2025):
Peptide text beside a SMILES is read from it. * marks the point of attachment. X1 = O=C(CCCCCN1C(=O)CC(*)C1=O)NCCCC(O)(P(=O)(O)O)P(=O)(O)O; X2 = O=P(O)(O)SCCNCCCN*

Experiments:
[1] = Conjugate cleavage in fresh bone marrow aspirate (HPLC); assay type: in vitro ADME; conditions: fresh bone marrow aspirate; human bone marrow aspirate, same donor, 37° C., up to 6 h; read-out: time to reach 50% conjugate cleavage (converted)
Protocol: The proteolytic cleavage of conjugates determines the therapeutic window, which is controlled by the specific peptide sequence. In a representative cleavage experiment, a […] stock solution of a conjugate (30 mg/mL) was mixed with 90 μL of fresh bone marrow aspirate, followed by incubation at 37° C. for up to 6 h. A 10 μL sample was taken every hour, diluted in 90 μL acetonitrile to precipitate proteins and extract conjugates and cleavage products. The concentrations of the conjugates in samples were determined by HPLC, normalized, and presented as the cleavage ratio.

CD2F1 male mice = experiment: Pathological evaluation of irradiated mice injected with a single dose; assay type: in vivo; design: key to Pathological change grade: Spleen, Depletion, white pulp / Pathological change grade: Lung, Infiltrate, mixed cells / Pathological change grade: Lung, Fibrosis / Pathological change grade: Heart, Infiltrate, mixed cells / Pathological change grade: Heart, Mineralization / Pathological change grade: Duodenum / Pathological change grade: Jejunum / Pathological change grade: Ileum / Pathological change grade: Colon, Infiltrate, mixed cells / Pathological change grade: Kidney / Pathological change grade: Urinary bladder / Pathological change grade: Bone Marrow, Atrophy / Pathological change grade: Bone Marrow, Hemorrhage / Pathological change grade: Liver: 0=no change; 1=a minimal change, barely perceptible; 2=a mild change; 3 =a moderate change, affecting up to 50% of the tissue; 4=marked change, affecting up to 90% of the tissue; 5=severe or maximum change
Protocol: CD2F1 male mice (N=16) were subcutaneously (sc) injected with a single dose of one conjugate drug. For one protective drug conjugate (Conjugate 2), the tested doses were 250, 500, 600, and 700 mg/kg, and the irradiation was conducted at 24 h post-drug administration. The structure of Conjugate 2 included amifostine as the protective drug, alendronate as the bone-targeting ligand, and a protease-cleavable peptide having the sequence of CPLGLYAL (SEQ ID NO: 29) with acetylation at the N-terminus (e.g., AcCPLGLYAL; SEQ ID NO: 76). On day 30, surviving mice were humanely sacrificed and necropsied, eleven tissues of interest (liver, spleen, lung, heart, duodenum, jejunum, ileum, colon, kidney, urinary bladder, and sternum/bone marrow) were collected, preserved in fixative, and processed to glass slides. The completed preparations were stained with hematoxylin and eosin and examined microscopically. Pathological changes in the tissues were graded using a semi-quantitation scale of 0-5, where 0=no change, 1=a minimal change, barely perceptible; 2=a mild change; 3 =a moderate change, affecting up to 50% of the tissue; 4=marked change, affecting up to 90% of the tissue; and 5=severe or maximum change.

[2] = 250 mg/kg sc, 24 h before 9.2 Gy, day 30, N = 11
[3] = 500 mg/kg sc, 24 h before 9.2 Gy, day 30, N = 12
[4] = 600 mg/kg sc, 24 h before 9.2 Gy, day 30, N = 15
[5] = 700 mg/kg sc, 24 h before 9.2 Gy, day 30, N = 16

## CC(=O)N[C@@H](CSC1CC(=O)N(CCCCCC(=O)NCCCC(O)(P(=O)(O)O)P(=O)(O)O)C1=O)C(=O)N1CCC[C@H]1C(=O)N[C@@H](CC(C)C)C(=O)NCC(=O)N[C@@H](CC(C)C)C(=O)N[C@@H](Cc1ccc(O)cc1)C(=O)N[C@@H](C)C(=O)N[C@@H](CC(C)C)C(=O)NCCCNCCSP(=O)(O)O (stereo partly drawn) [Conjugate 2] (Ac-C(X1)PLGLYAL-X2)
[1]
  half-life at 3 mg/mL: 4.2 h
CD2F1 male mice; [2]
  Pathological change grade: Bone Marrow, Atrophy: 2-3
  Pathological change grade: Bone Marrow, Hemorrhage: 0-1
  Pathological change grade: Colon, Infiltrate, mixed cells: 1
  Pathological change grade: Duodenum: 0
  Pathological change grade: Heart, Infiltrate, mixed cells: 0
  Pathological change grade: Heart, Mineralization: 0
  Pathological change grade: Ileum: 0
  Pathological change grade: Jejunum: 0
  Pathological change grade: Kidney: 0
  Pathological change grade: Liver: 0
  Pathological change grade: Lung, Fibrosis: 0
  Pathological change grade: Lung, Infiltrate, mixed cells: 0
  Pathological change grade: Spleen, Depletion, white pulp: 2
  Pathological change grade: Urinary bladder: 0
CD2F1 male mice; [3]
  Pathological change grade: Bone Marrow, Atrophy: 2-3
  Pathological change grade: Bone Marrow, Hemorrhage: 0-1
  Pathological change grade: Colon, Infiltrate, mixed cells: 1
  Pathological change grade: Duodenum: 0
  Pathological change grade: Heart, Infiltrate, mixed cells: 0
  Pathological change grade: Heart, Mineralization: 0
  Pathological change grade: Ileum: 0
  Pathological change grade: Jejunum: 0
  Pathological change grade: Kidney: 0
  Pathological change grade: Liver: 0
  Pathological change grade: Lung, Fibrosis: 0
  Pathological change grade: Lung, Infiltrate, mixed cells: 0
  Pathological change grade: Spleen, Depletion, white pulp: 1-2
  Pathological change grade: Urinary bladder: 0
CD2F1 male mice; [4]
  Pathological change grade: Bone Marrow, Atrophy: 2-3
  Pathological change grade: Bone Marrow, Hemorrhage: 0-1
  Pathological change grade: Colon, Infiltrate, mixed cells: 0-1
  Pathological change grade: Duodenum: 0
  Pathological change grade: Heart, Infiltrate, mixed cells: 0
  Pathological change grade: Heart, Mineralization: 0
  Pathological change grade: Ileum: 0
  Pathological change grade: Jejunum: 0
  Pathological change grade: Kidney: 0
  Pathological change grade: Liver: 0
  Pathological change grade: Lung, Fibrosis: 0
  Pathological change grade: Lung, Infiltrate, mixed cells: 0
  Pathological change grade: Spleen, Depletion, white pulp: 1-2
  Pathological change grade: Urinary bladder: 0
CD2F1 male mice; 700 mg/kg 24 h before 9.2 Gy, day 30 (FIG. 11B)
  sternal bone marrow histology compared to Vehicle Group: much denser marrow
CD2F1 male mice; 700 mg/kg 24 h before 9.2 Gy, day 30 (FIG. 11D)
  white pulp of the spleen, histology: essentially normal
CD2F1 male mice; [5]
  Pathological change grade: Bone Marrow, Atrophy: 2
  Pathological change grade: Bone Marrow, Hemorrhage: 0
  Pathological change grade: Colon, Infiltrate, mixed cells: 0-1
  Pathological change grade: Duodenum: 0
  Pathological change grade: Heart, Infiltrate, mixed cells: 0
  Pathological change grade: Heart, Mineralization: 0
  Pathological change grade: Ileum: 0
  Pathological change grade: Jejunum: 0
  Pathological change grade: Kidney: 0
  Pathological change grade: Liver: 0
  Pathological change grade: Lung, Fibrosis: 0
  Pathological change grade: Lung, Infiltrate, mixed cells: 0
  Pathological change grade: Spleen, Depletion, white pulp: 1-2
  Pathological change grade: Urinary bladder: 0
CD2F1 male mice; 250, 500, 600, 700 mg/kg, 24 h before 9.2 Gy
  protective effects on tissue pathology, especially bone marrow: significant dose-depending protective effects
